Source: US20090053721A1, “VOLTAGE-GATED ION CHANNEL MUTANTS FOR USE IN IDENTIFYING ION CHANNEL MODULATING COMPOUNDS” (CARDIOME PHARMA CORP., priority 2007, published 2009)
Several values for one entry are separate records, joined by “and”; a condition that tells them apart may be missing. Identical values can stand only once. Counter-ions that a name gives are not always drawn.

Columns and labels:
Type in all cases: cell-based
[1] = target: T1, Kv1.5 WT channel (Homo sapiens, UniProt P22460); experiment: Whole-cell patch-clamp block of wild-type Kv1.5 current in HEK293 cells
T1 construct: subcloned as a fragment back into full-length Kv1.5; expressed in transfected cells
T1 sequence (P22460 whole entry, the tested form may be a part): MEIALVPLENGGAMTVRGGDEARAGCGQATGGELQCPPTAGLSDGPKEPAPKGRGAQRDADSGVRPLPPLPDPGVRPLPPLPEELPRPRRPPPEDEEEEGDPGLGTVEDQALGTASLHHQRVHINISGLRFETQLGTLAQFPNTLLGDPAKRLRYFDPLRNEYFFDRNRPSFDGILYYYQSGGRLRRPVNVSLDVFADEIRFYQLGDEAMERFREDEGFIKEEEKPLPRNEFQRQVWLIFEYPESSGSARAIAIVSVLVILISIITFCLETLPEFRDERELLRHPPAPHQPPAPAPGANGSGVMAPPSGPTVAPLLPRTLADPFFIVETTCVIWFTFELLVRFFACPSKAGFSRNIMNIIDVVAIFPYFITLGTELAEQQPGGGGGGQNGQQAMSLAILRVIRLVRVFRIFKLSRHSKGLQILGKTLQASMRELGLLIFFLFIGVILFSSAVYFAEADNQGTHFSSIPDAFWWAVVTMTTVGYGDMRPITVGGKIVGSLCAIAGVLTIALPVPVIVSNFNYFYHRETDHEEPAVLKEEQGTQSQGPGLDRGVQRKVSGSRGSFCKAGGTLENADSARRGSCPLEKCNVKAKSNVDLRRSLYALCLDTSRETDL
Source text: Stable lines of HEK293 cells expressing Kv1.5, or transient transfection of mutant Kv1.5 channels were used in all experiments. Primers to generate mutant channels were synthesized by Integrated DNA Technologies, Inc. (Coralville, Iowa, USA), and mutants were generated using the Stratagene Quikchange kit (Stratagene, Calif., USA). The presence of the mutation was confirmed by DNA sequencing, and because of the size of the WT Kv1.5 clone, only the sequenced region harboring the targeted nucleotides was subcloned as a fragment back into full-length Kv1.5. Transient transfections were performed with HEK 293 cells plated at 20-30% confluency on sterile coverslips in 25 mm Petri dishes one day prior to transfection. 0.1-4 μg of ion channel DNA was incubated with 1 μg of eGFP DNA (to enable detection of transfected cells) and 2 μl of lipofectamine 2000 (Invitrogen) in 100 μl of Opti-MEM. This was added to the cells for overnight incubation after washing the media with 900 μl of MEM with 10% FBS.
The cells were grown in Minimal Essential Medium (MEM) at 37° C. in an air/5% CO2 incubator. Media contained 10% bovine serum and 0.5 mg/ml geneticin for stable lines. On the day before recording, stably-expressing cells were washed with MEM, treated with trypsin/EGTA for one minute and plated on 25 mm^2 coverslips. All cell culture supplies were obtained from Invitrogen (Mississauga, ON, Canada).
Control bath solution contained (in mM): 5 KCl, 135 NaCl, 2.8 sodium acetate, 1 MgCl2, 10 HEPES and 1 CaCl2, adjusted to pH 7.4 with NaOH. Patch pipettes contained (in mM): 130 KCl, 5 EGTA, 1 MgCl2, 10 HEPES, 4 Na2ATP, and 0.1 GTP, adjusted to pH 7.2 with KOH. All chemicals used to make solutions were obtained from Sigma-Aldrich (Mississauga, ON, Canada). […] Flecamide (Sigma-Aldrich, lot number 094K4057) was prepared as a stock solution (100 mM) in 100% DMSO. DMSO concentrations for either drug never exceeded 0.1% v/v in the final experimental solutions.
Coverslips with adherent cells plated on the surface were placed in a superfusion chamber (volume 300 μl) containing the control bath solution at 22° C. Whole-cell current recording and analysis were carried out using an Axopatch 200B amplifier and pClamp10 software (Axon Instruments, CA, USA). Patch electrodes were pulled from thin-walled borosilicate glass (World Precision Instruments, FL, USA) on a horizontal micropipette puller (Sutter Instruments, CA, USA). […] Analogue capacity compensation and 80% series resistance compensation were used during whole cell measurements. […] To assess drug block, half-log escalating concentrations of drug were added to the flowing bath solution and current traces were recorded with 400 ms depolarizing pulses to +60 mV at a frequency of 0.1 Hz. […]

[2] = target: T2, Kv1.5 I502A mutant channel (Homo sapiens, UniProt P22460, I502A); experiment: Voltage-dependence of block (Woodhull fit), I502A Kv1.5; settings: for blocking site, electrical distance across the membrane: Woodhull fit; for calculated binding site within the electric field (fractional electrical distance δ): from the inside of the pore
T2 construct: subcloned as a fragment back into full-length Kv1.5; expressed in transfected cells; host or cells: HEK293, transient transfection
T2 sequence (P22460 whole entry I502A, the tested form may be a part): as the sequence (P22460 whole entry, the tested form may be a part) above, with I502A counted along it
Protocol: (§1) Coverslips with adherent cells plated on the surface were placed in a superfusion chamber (volume 300 μl) containing the control bath solution at 22° C. Whole-cell current recording and analysis were carried out using an Axopatch 200B amplifier and pClamp10 software (Axon Instruments, CA, USA). Patch electrodes were pulled from thin-walled borosilicate glass (World Precision Instruments, FL, USA) on a horizontal micropipette puller (Sutter Instruments, CA, USA). […] Analogue capacity compensation and 80% series resistance compensation were used during whole cell measurements. Membrane potentials were not corrected for junction potentials that arise between the pipette and bath solution. For Kv1.5 current recordings, a holding potential of −80 mV was used. Data were sampled at 10-20 kHz and filtered at 5 to 10 kHz. To assess drug block, half-log escalating concentrations of drug were added to the flowing bath solution and current traces were recorded with 400 ms depolarizing pulses to +60 mV at a frequency of 0.1 Hz.
(§2) f=[D]/([D]+Kd*e^−δzFE/RT)
(§3) where F, R, z and T have their usual meanings, δ represents the fractional electrical distance, i.e., the fraction of the transmembrane electrical field sensed by a single charge at the receptor site. Kd* represents the binding affinity at the reference voltage (0 mV). The current amplitude (Idrug and Icontrol) was measured at the end of a 400 ms depolarization.
(§4) The amount of block was measured at the end of the pulse at the time indicated by the arrow on each set of data records, and, after normalization to the control, current density was plotted as a function of the depolarization potential (FIGS. 7B, 8B). Data were then fit to a standard model of drug block to obtain the electrical distance of the blocking site into the electric field from the inside of the channel (Woodhull, 1973).

[3] = target: T1, Kv1.5 WT channel; experiment: Voltage-dependence of block (Woodhull fit), wild-type Kv1.5; settings: for blocking site, electrical distance across the membrane: Woodhull fit, +10 to +60 mV; for calculated binding site within the electric field (fractional electrical distance δ): from the inside of the pore
Protocol: as §1, §2, §3, §4

SMILES	IC50 ([1]; steady-state current, +60 mV)	blocking site, electrical distance across the membrane [2] [%]	calculated binding site within the electric field (fractional electrical distance δ) [2]	blocking site, electrical distance across the membrane [3] [%]	calculated binding site within the electric field (fractional electrical distance δ) [3]	Hill coefficient [1]	reduction of outward current ([1]; 10 μM vernakalant)	Fractional Block ± SEM ([1]; 10 μM vernakalant, −80 to +60 mV, 400 ms, 0.1 Hz)
O=C(NCC1CCCCN1)c1cc(OCC(F)(F)F)ccc1OCC(F)(F)F (stereo not drawn) [Flecainide]	38.1 µM and 38 µM	32	0.32	~17	0.17	–	–	–
COc1ccc(CCO[C@@H]2CCCC[C@H]2N2CC[C@@H](O)C2)cc1OC [Vernakalant, 3-Pyrrolidinol, 1-[(1R,2R)-2-[2-(3,4-dimethoxyphenyl)ethoxy]cyclohexyl]-,hydrochloride, (3R)]	–	~40	0.39	~17	0.17	1.00	approximately 50%	0.45 ± 0.03
